Reference: article PMC4225773 (Bioorganic & medicinal chemistry letters, 2014)
Values after ≈ are worked out from the molar mass of the structure shown. Read-outs that look alike come from different tables or passages of the source. Marks after values point to notes of the source that are not given here.

Tests used:
[1] = test system: Intra-macrophage Amastigote Stage of L. donovani; assay: Amastigote-macrophage assay; settings: for Potency enhancement, intra-macrophage amastigote relative to axenic amastigote: comparing Tables 1 and 2; for Cytotoxic activity against intra-macrophage amastigote (in words): THP1 host cells, 3HP values in Table S1 (not available)
[2] = Cytotoxicity to uninfected THP1 macrophage cells; settings: human
HDAC8 = settings: read-out: HDAC8 IC50; NI = No Inhibition at maximum tested concentration of 10 µM (percentage inhibition < 20%); cited from earlier work
HDAC6 = settings: cited from earlier work; for IC50: read-out: HDAC6 IC50, NI = No Inhibition at maximum tested concentration of 10 µM (percentage inhibition < 20%); for HDAC6 % inhibition at 10 µM: given if the IC50 was above 10 µM
[3] = test system: promastigote stage of L. donovani; assay: Alamar blue
[4] = test system: axenic amastigote of L. donovani; assay: Alamar blue; type: cell-based
[5] = test system: Intra-macrophage Amastigote Stage of L. donovani
in vitro = settings: human
[6] = uninfected THP1 macrophage cells
[7] = L. donovani promastigote, maximum concentration tested 40 µg/mL
[8] = L. donovani axenic amastigote, maximum tested concentration 40 µg/mL

Compound | IC50 [2, 6] [µg/mL] | IC50 (HDAC8) [nM] | IC50 (HDAC6) [nM] | further results
N#Cc1ccc(-c2ccc(Cn3cccc(O)c3=S)cc2)cc1 [Compound 4b] | > 10 | 2080 ± 459 | 957 ± 159 | Potency enhancement, intra-macrophage amastigote relative to axenic amastigote [1]: 5- to 25 fold
Oc1cccn(Cc2cn(-c3ccccc3)nn2)c1=S [Compound 12b] | > 10 | 1570 ± 1070 | – | HDAC6 % inhibition at 10 µM (HDAC6): 41% ^†
Oc1cccnc1O [Compound 1a] | – | > 10000 | > 10000 | Cytotoxicity to promastigote stage (in words) [3, 7]: inactive
CN1CCc2c(c3ccccc3n2Cc2ccc(C(=O)NO)cc2)C1 [Tubastatin A, reference compound] | > 10 | – | – | –
N#Cc1ccccc1-c1ccc(Cn2cccc(O)c2=O)cc1 [Compound 6a] | – | > 10000 | > 10000 | –
CN(C)c1ccc(-c2ccc(Cn3cccc(O)c3=O)cc2)cc1 [Compound 10a] | – | > 10000 | > 10000 | Cytotoxicity to axenic amastigote (in words) [4, 8]: about equipotent to both stages of L. donovani
CN(C)c1ccc(-c2ccc(Cn3cccc(O)c3=S)cc2)cc1 [Compound 10b] | > 10 | 2860 ± 944 | > 10000 | Potency enhancement, intra-macrophage amastigote relative to axenic amastigote [1]: 5- to 25 fold
N#Cc1cccc(-c2ccc(Cn3cccc(O)c3=S)cc2)c1 [Compound 5b] | > 10 | 1700 ± 717 | – | HDAC6 % inhibition at 10 µM (HDAC6): 44% ^†
Oc1ccc[nH]c1=S [Compound 1b] | > 10 | 3680 ± 1200 | 681 ± 110 | Cytotoxicity to promastigote stage (in words) [3, 7]: weakly cytotoxic
N=C(N)c1ccc(OCCCCCOc2ccc(C(=N)N)cc2)cc1 [Pentamidine, pentamidine] | – | – | – | Cytotoxic activity against intra-macrophage amastigote (in words) [5]: potently cytotoxic; IC50 (in vitro): > 10 µg/mL
Oc1cccn(Cc2ccccc2)c1=S [Compound 2b] | > 10 | 1270 ± 200 | 457 ± 27 | –
O=c1c(O)cccn1Cc1ccc(-c2ccccc2)cc1 [Compound 3a] | – | > 10000 | > 10000 | Cytotoxic activity against intra-macrophage amastigote (in words) [1]: moderate to good cytotoxic activities
CN(C)c1ccc(-c2ccc(Cn3cccc(O)c3=S)cc2)cn1 [Compound 11b] | > 10 | > 10000 | 2390 ± 458 | –
Cc1cccc(-c2ccc(Cn3cccc(O)c3=O)cc2)c1 [Compound 8a] | – | > 10000 | > 10000 | –
O=c1c(O)cccn1Cc1ccccc1 [Compound 2a] | – | > 10000 | > 10000 | –
Cc1ccccc1-c1ccc(Cn2cccc(O)c2=S)cc1 [Compound 9b] | > 10 | 3100 ± 1650 | 306 ± 69 | –

Compound | IC50 [2, 6] [µg/mL] | IC50 (HDAC8) [nM] | IC50 (HDAC6) [nM] | further results
N#Cc1ccc(-c2ccc(Cn3cccc(O)c3=O)cc2)cc1 [Compound 4a] | – | > 10000 | > 10000 | Cytotoxic activity against intra-macrophage amastigote (in words) [1]: moderately active; Cytotoxicity to axenic amastigote (in words) [4, 8]: about equipotent to both stages of L. donovani
Cc1ccccc1-c1ccc(Cn2cccc(O)c2=O)cc1 [Compound 9a] | – | > 10000 | > 10000 | –
CN(C)c1ccc(-n2cc(Cn3cccc(O)c3=S)nn2)cc1 [Compound 13b] | > 10 | 1870 ± 723 | 1020 ± 99 | –
N#Cc1cccc(-c2ccc(Cn3cccc(O)c3=O)cc2)c1 [Compound 5a] | – | > 10000 | > 10000 | Cytotoxic activity against intra-macrophage amastigote (in words) [1]: moderate to good cytotoxic activities
Cc1cccc(-c2ccc(Cn3cccc(O)c3=S)cc2)c1 [Compound 8b] | > 10 | 2500 ± 1180 | 812 ± 286 | Cytotoxic activity against intra-macrophage amastigote (in words) [1]: inactive
O=c1c(O)cccn1Cc1cn(-c2ccccc2)nn1 [Compound 12a] | – | > 10000 | > 10000 | –
Cc1ccc(-c2ccc(Cn3cccc(O)c3=O)cc2)cc1 [Compound 7a] | – | > 10000 | > 10000 | –
Cc1ccc(-c2ccc(Cn3cccc(O)c3=S)cc2)cc1 [Compound 7b] | > 10 | 800 ± 304 | 454 ± 42 | –
CN(C)c1ccc(-n2cc(Cn3cccc(O)c3=O)nn2)cc1 [Compound 13a] | – | > 10000 | > 10000 | Cytotoxic activity against intra-macrophage amastigote (in words) [1]: moderate to good cytotoxic activities
CN(C)c1ccc(-c2ccc(Cn3cccc(O)c3=O)cc2)cn1 [Compound 11a] | – | > 10000 | > 10000 | –
O=C(CCCCCCC(=O)Nc1ccccc1)NO [SAHA, suberoylanilide hydroxamic acid, reference compound] | – | – | – | Cytotoxicity to axenic amastigote (in words) [4]: non-toxic; Cytotoxicity to promastigote stage (in words) [3]: minimal effect
Oc1cccn(Cc2ccc(-c3ccccc3)cc2)c1=S [Compound 3b] | > 10 | 4280 ± 1550 | 847 ± 188 | Potency enhancement, intra-macrophage amastigote relative to axenic amastigote [1]: 5- to 25 fold
C[C@@H]1[C@H](O)[C@@H](C)/C=C/C=C/C=C/C=C/C=C/C=C/C=C/[C@H](O[C@@H]2O[C@H](C)[C@@H](O)[C@H](N)[C@@H]2O)C[C@@H]2O[C@](O)(C[C@@H](O)C[C@@H](O)[C@H](O)CC[C@@H](O)C[C@@H](O)CC(=O)O[C@H]1C)C[C@H](O)[C@H]2C(=O)O [Amphotericin B] | – | – | – | IC50 ([3]; Leishmania donovani, read-out: Promastigote IC50): 0.4 µg/mL (≈ 0.433 µM); Cytotoxic activity against intra-macrophage amastigote (in words) [5]: potently cytotoxic; IC50 (in vitro): > 10 µg/mL
COc1ccc(Cn2ccc3ccc(C(=O)NO)cc32)cc1 [PCI-34051, reference compound] | – | – | – | Cytotoxic activity against intra-macrophage amastigote (in words) [1]: inactive; IC50 [2]: > 10 µg/mL; Cytotoxicity to promastigote stage (in words) [3, 7]: minimal effect
N#Cc1ccccc1-c1ccc(Cn2cccc(O)c2=S)cc1 [Compound 6b] | > 10 | 1910 ± 771 | 372 ± 35 | Cytotoxic activity against intra-macrophage amastigote (in words) [1]: inactive
